Structures are written as SMILES. The source made the active and inactive calls.

In general, Kd refers to the constant that tells how readily two partners part at equilibrium.

Experiment [1] deals with Serine/threonine-protein kinase PAK 4 (Homo sapiens, UniProt O96013).
Experiment [2] deals with Insulin-like growth factor 1 receptor (Homo sapiens, UniProt P08069).
Experiment [3] concerns the target T1, DNA replication licensing factor MCM4 (Homo sapiens, UniProt P33991).
T1 sequence (P33991 whole entry): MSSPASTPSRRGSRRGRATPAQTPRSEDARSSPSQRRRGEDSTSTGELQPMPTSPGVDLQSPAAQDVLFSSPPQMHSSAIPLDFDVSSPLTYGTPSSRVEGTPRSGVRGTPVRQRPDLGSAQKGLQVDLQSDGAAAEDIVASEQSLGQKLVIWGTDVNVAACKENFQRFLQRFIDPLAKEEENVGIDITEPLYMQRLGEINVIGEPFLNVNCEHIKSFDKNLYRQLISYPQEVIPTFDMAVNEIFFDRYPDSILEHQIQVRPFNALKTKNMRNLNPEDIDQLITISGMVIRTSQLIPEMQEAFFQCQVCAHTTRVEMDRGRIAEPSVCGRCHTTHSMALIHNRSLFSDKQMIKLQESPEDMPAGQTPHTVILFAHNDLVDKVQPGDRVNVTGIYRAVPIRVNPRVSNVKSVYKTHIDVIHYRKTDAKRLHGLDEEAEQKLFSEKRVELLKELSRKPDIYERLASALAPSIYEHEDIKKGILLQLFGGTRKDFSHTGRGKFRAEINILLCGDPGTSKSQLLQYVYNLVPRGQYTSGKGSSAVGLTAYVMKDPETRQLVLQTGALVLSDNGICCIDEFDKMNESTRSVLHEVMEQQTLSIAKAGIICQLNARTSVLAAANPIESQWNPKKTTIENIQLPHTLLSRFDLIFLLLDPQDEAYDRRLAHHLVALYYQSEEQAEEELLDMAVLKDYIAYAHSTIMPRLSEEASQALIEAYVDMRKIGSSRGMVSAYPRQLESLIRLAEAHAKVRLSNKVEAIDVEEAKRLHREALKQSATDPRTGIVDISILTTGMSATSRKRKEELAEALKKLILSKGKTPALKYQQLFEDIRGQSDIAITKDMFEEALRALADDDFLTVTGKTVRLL

Experiment [4] has as its target Ras-related protein Rab-6A (Homo sapiens, UniProt P20340).
Experiment [5] deals with T2, Beta-adrenergic receptor kinase 1 (Homo sapiens, UniProt P25098).
T2 sequence (P25098 whole entry): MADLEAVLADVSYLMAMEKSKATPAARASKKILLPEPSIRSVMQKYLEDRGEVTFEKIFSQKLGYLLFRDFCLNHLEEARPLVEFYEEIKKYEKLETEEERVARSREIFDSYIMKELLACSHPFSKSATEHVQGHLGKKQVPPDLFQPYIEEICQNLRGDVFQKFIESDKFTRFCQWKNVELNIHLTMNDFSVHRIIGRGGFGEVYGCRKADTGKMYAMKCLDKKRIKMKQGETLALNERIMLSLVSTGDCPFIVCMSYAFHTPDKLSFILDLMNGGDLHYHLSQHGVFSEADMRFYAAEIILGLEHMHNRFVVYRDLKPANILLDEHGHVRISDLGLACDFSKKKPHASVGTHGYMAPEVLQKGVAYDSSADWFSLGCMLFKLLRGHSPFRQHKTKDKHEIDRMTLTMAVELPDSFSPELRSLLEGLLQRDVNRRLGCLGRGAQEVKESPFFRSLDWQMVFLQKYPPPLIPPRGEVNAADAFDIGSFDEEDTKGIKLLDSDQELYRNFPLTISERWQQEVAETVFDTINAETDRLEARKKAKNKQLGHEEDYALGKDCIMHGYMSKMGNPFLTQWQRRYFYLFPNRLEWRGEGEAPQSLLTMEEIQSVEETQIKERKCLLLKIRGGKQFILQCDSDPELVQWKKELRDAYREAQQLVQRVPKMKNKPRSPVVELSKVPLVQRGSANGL

The target of experiment [6] is Cyclin-dependent kinase 6 (Homo sapiens, UniProt Q00534).
Chain of Cyclin-dependent kinase 6 (Q00534 whole entry): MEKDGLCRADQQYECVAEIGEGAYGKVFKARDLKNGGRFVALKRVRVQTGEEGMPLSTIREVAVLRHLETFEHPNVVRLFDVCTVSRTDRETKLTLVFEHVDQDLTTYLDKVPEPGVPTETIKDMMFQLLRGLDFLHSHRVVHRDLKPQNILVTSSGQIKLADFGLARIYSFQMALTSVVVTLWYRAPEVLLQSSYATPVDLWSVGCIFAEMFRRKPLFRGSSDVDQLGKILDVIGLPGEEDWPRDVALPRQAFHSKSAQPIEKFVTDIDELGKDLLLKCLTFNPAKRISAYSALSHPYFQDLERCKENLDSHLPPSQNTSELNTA
Experiment [7] deals with Calcium/calmodulin-dependent protein kinase type II subunit delta (Homo sapiens, UniProt Q13557).
Chain of Calcium/calmodulin-dependent protein kinase type II subunit delta (Q13557 whole entry): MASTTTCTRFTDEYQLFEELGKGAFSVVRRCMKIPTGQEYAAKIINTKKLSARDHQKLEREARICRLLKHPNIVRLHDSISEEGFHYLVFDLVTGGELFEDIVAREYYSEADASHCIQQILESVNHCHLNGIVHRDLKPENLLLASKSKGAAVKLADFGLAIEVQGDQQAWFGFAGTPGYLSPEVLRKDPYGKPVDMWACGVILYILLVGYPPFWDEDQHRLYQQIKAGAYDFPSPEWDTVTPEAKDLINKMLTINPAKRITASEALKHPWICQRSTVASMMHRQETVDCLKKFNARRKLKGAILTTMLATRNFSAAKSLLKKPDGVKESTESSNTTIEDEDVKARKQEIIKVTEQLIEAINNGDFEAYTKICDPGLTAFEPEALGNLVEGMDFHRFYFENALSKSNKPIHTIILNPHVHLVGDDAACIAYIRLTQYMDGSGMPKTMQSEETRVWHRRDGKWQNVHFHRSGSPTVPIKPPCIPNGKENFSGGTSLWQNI
Experiment [8] addresses Mitogen-activated protein kinase 11 (Homo sapiens, UniProt Q15759).
Experiment [9] deals with T3, Serine/threonine-protein kinase Nek9 (Homo sapiens, UniProt Q8TD19).
T3 sequence (Q8TD19 whole entry): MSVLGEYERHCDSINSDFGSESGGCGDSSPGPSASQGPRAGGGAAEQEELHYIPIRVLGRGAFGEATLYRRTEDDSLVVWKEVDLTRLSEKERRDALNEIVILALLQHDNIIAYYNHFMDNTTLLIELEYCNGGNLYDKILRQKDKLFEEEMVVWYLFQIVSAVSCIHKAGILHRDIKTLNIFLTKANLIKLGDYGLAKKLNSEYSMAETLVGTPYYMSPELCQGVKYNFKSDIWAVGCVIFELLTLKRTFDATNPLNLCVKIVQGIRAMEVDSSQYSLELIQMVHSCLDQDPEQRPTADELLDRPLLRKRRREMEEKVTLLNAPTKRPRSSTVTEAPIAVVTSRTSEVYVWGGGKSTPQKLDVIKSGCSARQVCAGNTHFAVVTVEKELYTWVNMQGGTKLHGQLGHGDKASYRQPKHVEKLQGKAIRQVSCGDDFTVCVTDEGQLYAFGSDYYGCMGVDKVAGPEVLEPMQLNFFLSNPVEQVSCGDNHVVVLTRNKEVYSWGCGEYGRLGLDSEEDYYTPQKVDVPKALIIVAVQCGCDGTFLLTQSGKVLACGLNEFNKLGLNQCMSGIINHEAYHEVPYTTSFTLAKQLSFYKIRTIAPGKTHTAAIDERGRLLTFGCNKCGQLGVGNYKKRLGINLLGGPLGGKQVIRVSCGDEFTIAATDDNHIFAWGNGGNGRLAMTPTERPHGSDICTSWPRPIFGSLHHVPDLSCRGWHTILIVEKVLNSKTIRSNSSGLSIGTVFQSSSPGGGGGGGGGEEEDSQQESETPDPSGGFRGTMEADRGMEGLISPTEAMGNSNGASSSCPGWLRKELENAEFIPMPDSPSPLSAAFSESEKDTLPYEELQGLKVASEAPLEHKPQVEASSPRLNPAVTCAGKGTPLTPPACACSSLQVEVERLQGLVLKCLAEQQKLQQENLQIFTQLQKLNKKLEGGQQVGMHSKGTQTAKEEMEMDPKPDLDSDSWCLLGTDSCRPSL

In experiment [10] the target is Receptor-interacting serine/threonine-protein kinase 2 (Homo sapiens, UniProt O43353).
Chain of Receptor-interacting serine/threonine-protein kinase 2 (O43353 whole entry): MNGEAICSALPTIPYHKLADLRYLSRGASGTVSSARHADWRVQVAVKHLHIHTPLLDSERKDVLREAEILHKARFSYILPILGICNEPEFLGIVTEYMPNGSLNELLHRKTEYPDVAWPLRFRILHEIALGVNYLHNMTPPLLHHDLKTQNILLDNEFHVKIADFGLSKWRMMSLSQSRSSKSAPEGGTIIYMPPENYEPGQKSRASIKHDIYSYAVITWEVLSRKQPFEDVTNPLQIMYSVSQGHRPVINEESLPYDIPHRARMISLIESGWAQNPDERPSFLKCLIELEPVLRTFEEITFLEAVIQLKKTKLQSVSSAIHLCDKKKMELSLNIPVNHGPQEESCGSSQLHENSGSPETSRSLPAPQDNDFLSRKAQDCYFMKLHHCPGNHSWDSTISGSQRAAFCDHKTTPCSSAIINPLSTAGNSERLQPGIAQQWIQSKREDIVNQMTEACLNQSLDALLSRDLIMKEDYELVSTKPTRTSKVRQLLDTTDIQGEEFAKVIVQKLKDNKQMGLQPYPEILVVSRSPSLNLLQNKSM
In experiment [11] the target is Rho-associated protein kinase 1 (Homo sapiens, UniProt Q13464).
Further: in the data inactive means no Kd found up to 30 µM.

Chain of Serine/threonine-protein kinase PAK 4 (O96013 whole entry): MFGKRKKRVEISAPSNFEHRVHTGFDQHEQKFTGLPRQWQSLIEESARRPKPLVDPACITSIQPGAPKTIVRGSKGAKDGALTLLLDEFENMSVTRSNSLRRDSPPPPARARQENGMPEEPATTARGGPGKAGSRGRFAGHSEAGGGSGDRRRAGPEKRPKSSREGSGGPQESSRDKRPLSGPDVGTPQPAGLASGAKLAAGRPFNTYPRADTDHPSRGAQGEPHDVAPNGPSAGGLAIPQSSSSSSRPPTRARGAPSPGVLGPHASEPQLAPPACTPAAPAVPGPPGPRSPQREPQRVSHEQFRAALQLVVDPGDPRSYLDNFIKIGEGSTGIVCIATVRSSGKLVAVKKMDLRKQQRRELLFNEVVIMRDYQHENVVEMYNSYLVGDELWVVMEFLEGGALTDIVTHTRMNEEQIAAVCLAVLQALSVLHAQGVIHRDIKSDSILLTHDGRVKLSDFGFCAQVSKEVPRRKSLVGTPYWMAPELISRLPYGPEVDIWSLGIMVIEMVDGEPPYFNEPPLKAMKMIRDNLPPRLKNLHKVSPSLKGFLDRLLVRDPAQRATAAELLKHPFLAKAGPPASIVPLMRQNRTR
Chain of Mitogen-activated protein kinase 11 (Q15759 whole entry): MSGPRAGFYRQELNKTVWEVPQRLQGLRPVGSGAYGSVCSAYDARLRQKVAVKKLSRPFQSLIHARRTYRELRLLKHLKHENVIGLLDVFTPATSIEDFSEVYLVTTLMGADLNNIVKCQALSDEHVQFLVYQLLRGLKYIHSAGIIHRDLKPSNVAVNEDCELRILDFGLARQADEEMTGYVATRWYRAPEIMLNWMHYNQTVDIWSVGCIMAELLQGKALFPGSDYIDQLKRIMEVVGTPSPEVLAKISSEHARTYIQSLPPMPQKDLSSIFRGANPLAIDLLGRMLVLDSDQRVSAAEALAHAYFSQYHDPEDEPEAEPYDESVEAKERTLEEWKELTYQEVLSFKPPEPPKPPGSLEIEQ
Chain of Ras-related protein Rab-6A (P20340 whole entry): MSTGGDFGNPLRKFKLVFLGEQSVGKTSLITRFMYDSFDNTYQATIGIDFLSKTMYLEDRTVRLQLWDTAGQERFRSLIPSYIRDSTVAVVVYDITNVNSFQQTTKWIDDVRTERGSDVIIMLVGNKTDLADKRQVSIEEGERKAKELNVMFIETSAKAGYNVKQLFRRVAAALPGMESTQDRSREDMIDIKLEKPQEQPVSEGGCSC
Chain of Insulin-like growth factor 1 receptor (P08069 31-736 limits assumed): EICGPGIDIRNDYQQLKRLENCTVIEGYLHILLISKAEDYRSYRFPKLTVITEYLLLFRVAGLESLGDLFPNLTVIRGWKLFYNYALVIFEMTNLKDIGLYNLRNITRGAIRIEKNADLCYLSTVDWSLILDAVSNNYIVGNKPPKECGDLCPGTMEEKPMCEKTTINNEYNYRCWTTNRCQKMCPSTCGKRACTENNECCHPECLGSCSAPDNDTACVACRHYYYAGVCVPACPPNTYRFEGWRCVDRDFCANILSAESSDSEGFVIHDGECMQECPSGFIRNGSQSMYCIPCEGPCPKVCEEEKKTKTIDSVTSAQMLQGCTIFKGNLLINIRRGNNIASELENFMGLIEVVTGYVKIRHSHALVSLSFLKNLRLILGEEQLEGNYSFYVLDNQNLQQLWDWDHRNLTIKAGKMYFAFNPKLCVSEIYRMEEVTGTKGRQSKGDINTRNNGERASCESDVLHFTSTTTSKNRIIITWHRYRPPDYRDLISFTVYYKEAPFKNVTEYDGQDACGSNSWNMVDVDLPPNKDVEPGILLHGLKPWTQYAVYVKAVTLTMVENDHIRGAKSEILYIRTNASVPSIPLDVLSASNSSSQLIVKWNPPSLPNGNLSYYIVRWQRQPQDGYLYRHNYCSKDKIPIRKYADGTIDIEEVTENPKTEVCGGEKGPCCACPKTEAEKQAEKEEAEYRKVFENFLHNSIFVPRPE
Chain of Insulin-like growth factor 1 receptor (P08069 741-1367 limits assumed): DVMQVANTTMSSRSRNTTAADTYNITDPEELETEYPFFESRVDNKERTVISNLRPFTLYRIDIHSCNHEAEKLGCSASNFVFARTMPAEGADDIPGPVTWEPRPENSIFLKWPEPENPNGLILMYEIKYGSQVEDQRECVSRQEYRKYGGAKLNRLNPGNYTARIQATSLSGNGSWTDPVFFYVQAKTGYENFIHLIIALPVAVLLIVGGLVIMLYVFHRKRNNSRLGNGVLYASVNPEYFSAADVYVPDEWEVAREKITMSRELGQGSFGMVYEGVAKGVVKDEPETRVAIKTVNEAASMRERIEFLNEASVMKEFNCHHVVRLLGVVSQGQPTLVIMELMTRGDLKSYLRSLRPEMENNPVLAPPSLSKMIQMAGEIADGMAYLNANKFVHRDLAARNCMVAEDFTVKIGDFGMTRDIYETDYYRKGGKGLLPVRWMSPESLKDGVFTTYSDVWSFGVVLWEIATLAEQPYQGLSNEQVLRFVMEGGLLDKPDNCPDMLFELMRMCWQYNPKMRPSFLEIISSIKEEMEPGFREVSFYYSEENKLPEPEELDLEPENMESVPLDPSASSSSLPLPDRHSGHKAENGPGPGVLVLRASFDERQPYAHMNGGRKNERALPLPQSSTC

With `CC(C)Nc1cc(-c2c[nH]c(C(=O)N[C@H](CO)c3cccc(Cl)c3)c2)c(Cl)cn1` [ULIXERTINIB], the Kd in experiment [1], in [2], in [3], in [4], in experiment [5] and in experiment [6] was > 30 µM (inactive) throughout. The Kd in experiment [7], in [8], in experiment [9] and in experiment [10] was > 30 µM (inactive) throughout.

Regarding `O=C(Nc1cccc(Cl)c1)Nc1ncc(CCNc2ncnc3ccsc23)s1` [SNS-314], the Kd in [3], in experiment [4], in [6], in experiment [8], in experiment [9] and in experiment [10] was > 30 µM (inactive) in each case.

Turning to `Cc1cn(-c2cc(NC(=O)c3ccc(C)c(Nc4nccc(-c5cccnc5)n4)c3)cc(C(F)(F)F)c2)cn1` [NILOTINIB], the Kd in experiment [3], in experiment [4], in experiment [5] and in experiment [6] was > 30 µM (inactive) each time.

Consider `COc1cc(CCc2cc(NC(=O)c3ccc(N4C[C@@H](C)N[C@@H](C)C4)cc3)n[nH]2)cc(OC)c1` [AZD-4547], for which the Kd in [1], in [2], in [3], in [4], in experiment [5] and in [6] was > 30 µM (inactive) in each case. In addition, the Kd in experiment [7], in experiment [8], in experiment [9] and in [10] was > 30 µM (inactive) throughout.

With `Nc1nc(N)c2nc(-c3cccc(O)c3)c(-c3cccc(O)c3)nc2n1` [TG100-115], the Kd in [3], in [4], in experiment [5] and in [6] was > 30 µM (inactive) each time.

As for `CN1CCN(c2ccc3nc(-c4c(N)c5c(F)cccc5[nH]c4=O)[nH]c3c2)CC1` [DOVITINIB], the Kd in experiment [3] is > 30 µM (inactive); in [4] it was > 30 µM (inactive); in [5] it was > 30 µM (inactive); in experiment [6], 2.83 µM (active).

As to `Cc1cc(Nc2cc(N3CCN(C)CC3)nc(/C=C/c3ccccc3)n2)n[nH]1` [ENMD-2076], the Kd in experiment [3], in experiment [4], in experiment [5], in experiment [6], in experiment [8] and in experiment [10] was > 30 µM (inactive) throughout.

As to `Cc1nc(N)sc1-c1ccnc(Nc2ccc(N3CCOCC3)cc2)n1` [CYC-116], the Kd in [3] is > 30 µM (inactive); in experiment [4], > 30 µM (inactive); in [5] it was > 30 µM (inactive); in [6], 1.72 µM (active); in experiment [8], > 30 µM (inactive); in [9] it was 0.133 µM (active).

For `CCn1c(-c2nonc2N)nc2c(C#CC(C)(C)O)ncc(OC[C@H]3CCCNC3)c21` [GSK-690693], the Kd in experiment [3], in experiment [4], in [5] and in experiment [6] was > 30 µM (inactive) throughout.

As for `CCc1cnn2c(NCc3ccc[n+]([O-])c3)cc(N3CCCC[C@H]3CCO)nc12` [DINACICLIB], the Kd in [3], in experiment [4], in [5], in [7], in experiment [8] and in experiment [9] was > 30 µM (inactive) in each case. Also, in experiment [10], the Kd was > 30 µM (inactive).

Turning to `CNC(=O)c1cc(Oc2ccc(NC(=O)Nc3ccc(Cl)c(C(F)(F)F)c3)c(F)c2)ccn1` [REGORAFENIB], the Kd in experiment [1], in [2], in experiment [3], in experiment [4], in experiment [5] and in experiment [11] was > 30 µM (inactive) each time. For the same molecule, the Kd in experiment [6] was > 30 µM (inactive); in experiment [7], > 30 µM (inactive); in experiment [8], 1.91 µM (active); in [9] it was > 30 µM (inactive).

As for `COc1cc2nccc(Oc3ccc(NC(=O)Nc4cc(C)on4)c(Cl)c3)c2cc1OC` [TIVOZANIB], the Kd in experiment [1], in experiment [2], in experiment [3], in experiment [4], in experiment [5] and in [11] was > 30 µM (inactive) each time. In addition, the Kd in [6], in experiment [7] and in [9] was > 30 µM (inactive) in each case.

As for `OCCn1cc(-c2cnc3nnn(Cc4ccc5ncccc5c4)c3n2)cn1` [PF-04217903], the Kd in [3], in experiment [4], in experiment [5], in [6], in experiment [7] and in experiment [8] was > 30 µM (inactive) each time. Besides, the Kd in [9] and in experiment [10] was > 30 µM (inactive) each time.

For the molecule `O=C(Nc1ccc(-c2ccnc(Nc3ccc(N4CCOCC4)cc3)n2)cc1)C1CCCN1` (stereo not drawn) [XL-019], the Kd in [1], in [2], in experiment [3], in experiment [4], in experiment [5] and in experiment [6] was > 30 µM (inactive) in each case. In addition, the Kd in [7] is > 30 µM (inactive); in experiment [8] it was > 30 µM (inactive); in experiment [9], 2.19 µM (active); in [10], > 30 µM (inactive).
